Source: paper PMC6599804, “N^ɛ-acetyl lysine derivatives with zinc binding groups as novel HDAC inhibitors” (Royal Society Open Science, 2019)

What was measured:
[1] = system: HDACs (HeLa nuclear extract); experiment: HDAC deacetylation inhibition assay, HeLa nuclear extract with BOC-Ac-Lys-AMC substrate; format: biochemical, human; settings: BOC-Ac-Lys-AMC substrate; for HDAC inhibition (%): compound at 100 µM; for IC50: read-out: IC50 values, HeLa nuclear extract
Procedure: With these N^ɛ-acetyl lysine derivatives in hand (schemes 1–3), we then did the pilot screening for general HDAC inhibitory activity at a compound's concentration of 100 µM. All tested compounds were subjected to the inhibition assay against the HDAC deacetylation reaction by using a HeLa nuclear extract as a source of HDACs and BOC-Ac-Lys-AMC as a substrate.
HDACS inhibition assay in vitro
In vitro HDACs inhibition assays were conducted as previously described. In brief, 4 μL of […]
(1μL), then fluorogenic substrate Boc-Lys(acetyl)-AMC (100 μM) and Buffer A (50 mM Tis-HCl pH=8.0, 150 mM NaCl, 30 mM KCl, 10 mM MgCl2) were added. After incubation at 37℃ for 1h, […]
And then incubation at 37℃ for 1h, the mixture was stopped by the addition of 50 μL of Buffer B (200mM HCl/300 mM Acetic acid), fluorescence intensity was measured using a microplate reader at excitation and emission wavelengths of 360 nm and 460 nm. The inhibition ratios were calculated from the fluorescence intensity readings of tested wells relative to those of control wells, […]
regression analysis of the concentration/inhibition data. All experiments were done in triplicate. […]

K562 cells = experiment: MTS cell proliferation assay, K562; format: cell-based, human
Procedure: (§1) Because of the great anti-tumour potential of HDAC inhibitors, we did the antiproliferative evaluation of 18c against K562 cells, A549 cells and HepG2 cells using MTS assay as previously described. […]
(§2) The rate of cell survival under the action of test substances was evaluated by an improved MTS assay as previously described. In brief, A549 (5000 cells / well) , HepG2 (5000 cells / well), HEK293 (5000 cells / well) and K562 (1 ×10^4 cells/well) cell lines were seeded into 96-well plates in 100 µL medium. After overnight incubation, each well was added with different […]
(§3) 48 hours 5ul of MTS reagent solution was added into each well and the cells were incubated for another 4 hours at 37℃ under 5% CO2 environment. The absorbance was measured at 490 nm in […]
(§4) a Microplate to determine the cell viability. The absorbance was directly proportional to the number of viable cells. All experiments were done in triplicate. […]
(§5) calculate and compare their selective index. […]
(§6) Unbound antibodies

HepG2 cells = experiment: MTS cell proliferation assay, HepG2; format: cell-based, human
Procedure: as §1, §2, §3, §4, §5, §6

HEK293 = experiment: MTS cell proliferation assay, HEK293 (non-cancerous kidney cell); format: cell-based; settings: Homo sapiens, HEK293; MTS assay, 48 hours; normal cells
Procedure: as §1, §2, §3, §4, §5, §6

A549 cells = experiment: MTS cell proliferation assay, A549; format: cell-based, human
Procedure: as §1, §2, §3, §4, §5, §6

HDAC8 = target: T1, HDAC8 (Homo sapiens, UniProt Q9BY41); experiment: HDAC subtype selectivity assay with subtype substrate, HDAC8; format: biochemical; settings: read-out: HDAC Inhibition (%) HDAC8
T1 construct: Hela nuclear extract; endogenous in cells; host or cells: HeLa nuclear extract
T1 sequence (Q9BY41 1-377): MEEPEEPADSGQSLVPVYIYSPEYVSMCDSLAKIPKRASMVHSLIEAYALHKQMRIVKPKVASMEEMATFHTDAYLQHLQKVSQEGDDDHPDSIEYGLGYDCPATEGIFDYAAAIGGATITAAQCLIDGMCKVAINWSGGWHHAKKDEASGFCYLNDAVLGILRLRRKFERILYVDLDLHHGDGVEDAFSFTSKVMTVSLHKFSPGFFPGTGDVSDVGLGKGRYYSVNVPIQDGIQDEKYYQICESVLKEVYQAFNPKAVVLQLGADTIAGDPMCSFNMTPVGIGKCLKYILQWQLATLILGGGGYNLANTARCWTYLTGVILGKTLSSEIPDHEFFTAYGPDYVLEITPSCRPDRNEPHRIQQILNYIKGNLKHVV

[2] = Homo sapiens, MTS assay, 48 hours

O=C(N[C@@H](CCCCNC(=O)c1ccc2ncccc2c1)C(=O)Nc1ccccc1)OCc1ccccc1 [Compound 14i]
HDAC inhibition (%) [1]: 36.8 ± 1.1%

COC(=O)CC(=O)NCCCC[C@H](NC(=O)OCc1ccccc1)C(=O)Nc1ccccc1 [Compound 15a]
HDAC inhibition (%) [1]: 19.4 ± 10.9%

O=C(N[C@@H](CCCCNC(=O)c1csc2ccccc12)C(=O)Nc1ccccc1)OCc1ccccc1 [Compound 14n]
HDAC inhibition (%) [1]: 16.2 ± 2.0%

O=C(N[C@@H](CCCCNCc1c[nH]c2ccccc12)C(=O)Nc1ccccc1)OCc1ccccc1 [Compound 14l]
HDAC inhibition (%) [1]: 3.1 ± 0.5%

O=C(CCC(=O)NCCCC[C@H](NC(=O)OCc1ccccc1)C(=O)Nc1ccccc1)NO [Compound 11]
IC50 [1]: 25.4 ± 1.35 µM | HDAC inhibition (%) [1]: 86.0 ± 3.0%

O=C(N[C@@H](CCCCNC(=O)C1=CCc2ccccc21)C(=O)Nc1ccccc1)OCc1ccccc1 [Compound 14k]
HDAC inhibition (%) [1]: 22.4 ± 0.2%

O=C(O)CCCCC(=O)NCCCC[C@H](NC(=O)OCc1ccccc1)C(=O)Nc1ccccc1 [Compound 16b]
HDAC inhibition (%) [1]: 4.3 ± 0.5%

N[C@@H](Cc1c[nH]c2ccccc12)C(=O)NCCCC[C@H](NC(=O)OCc1ccccc1)C(=O)Nc1ccccc1 [Compound 14q]
HDAC inhibition (%) [1]: 36.2 ± 0.4%

Nc1ccccc1NC(=O)CCCCC(=O)NCCCC[C@H](NC(=O)OCc1ccccc1)C(=O)Nc1ccccc1 [Compound 17b]
HDAC inhibition (%) [1]: 69.3 ± 3.4%

O=C(O)CCCCCCC(=O)NCCCC[C@H](NC(=O)OCc1ccccc1)C(=O)Nc1ccccc1 [Compound 16c]
antiproliferative activity (K562 cells; 500 µM, MTS): no obvious antiproliferative activities | IC50 (K562 cells; [2]): > 500 µM | antiproliferative activity (HepG2 cells; 500 µM, MTS): no obvious antiproliferative activities | IC50 (HepG2 cells; [2]): > 500 µM | HDAC inhibition (%) [1]: 1.1 ± 0.4% | IC50 (HEK293): > 500 µM | antiproliferative activity (A549 cells; 500 µM, MTS): no obvious antiproliferative activities | IC50 (A549 cells; [2]): > 500 µM

O=C(CCCCC(=O)NCCCC[C@H](NC(=O)OCc1ccccc1)C(=O)Nc1ccccc1)NO [Compound 18b]
IC50 [1]: 10.4 ± 3.86 µM | HDAC inhibition (%) [1]: 99.9 ± 0.9%

O=C(CC1SC(=O)NC1=O)NCCCC[C@H](NC(=O)OCc1ccccc1)C(=O)Nc1ccccc1 (stereo partly drawn) [Compound 14o]
HDAC inhibition (%) [1]: 48.6 ± 0.5%

O=C(O)/C=C/C(=O)NCCCC[C@H](NC(=O)OCc1ccccc1)C(=O)Nc1ccccc1 [Compound 10]
HDAC inhibition (%) [1]: 38.7 ± 1.0%

O=C(N[C@@H](CCCCNC(=O)c1cccs1)C(=O)Nc1ccccc1)OCc1ccccc1 [Compound 14f]
HDAC inhibition (%) [1]: 45.0 ± 0.4%

Cc1ccc(C(=O)NCCCC[C@H](NC(=O)OCc2ccccc2)C(=O)Nc2ccccc2)cn1 [Compound 14b]
HDAC inhibition (%) [1]: 39.2 ± 0.8%

O=C(N[C@@H](CCCCNC(=O)c1coc2ccccc12)C(=O)Nc1ccccc1)OCc1ccccc1 [Compound 14m]
HDAC inhibition (%) [1]: 14.3 ± 0.5%

COC(=O)CCCCC(=O)NCCCC[C@H](NC(=O)OCc1ccccc1)C(=O)Nc1ccccc1 [Compound 15b]
HDAC inhibition (%) [1]: 2.9 ± 0.8%

O=C(O)CC(=O)NCCCC[C@H](NC(=O)OCc1ccccc1)C(=O)Nc1ccccc1 [Compound 16a]
HDAC inhibition (%) [1]: 4.0 ± 1.7%

O=C(N[C@@H](CCCCNC(=O)c1ccco1)C(=O)Nc1ccccc1)OCc1ccccc1 [Compound 14e]
HDAC inhibition (%) [1]: 54.0 ± 1.9%

Nc1ccccc1NC(=O)CC(=O)NCCCC[C@H](NC(=O)OCc1ccccc1)C(=O)Nc1ccccc1 [Compound 17a]
HDAC inhibition (%) [1]: 7.0 ± 0.4%

O=C(/C=C/c1cccnc1)NCCCC[C@H](NC(=O)OCc1ccccc1)C(=O)Nc1ccccc1 [Compound 14c]
HDAC inhibition (%) [1]: 51.0 ± 1.0%

O=C(CCCCCCC(=O)Nc1ccccc1)NO [SAHA (1), Vorinostat, reference compound]
inhibition at 1 µM (HDAC8): 41.19 ± 0.18%

O=C(N[C@@H](CCCCNC(=O)c1cccnc1)C(=O)Nc1ccccc1)OCc1ccccc1 [Compound 14a]
HDAC inhibition (%) [1]: 39.6 ± 0.4%

O=C(/C=C/C(=O)NCCCC[C@H](NC(=O)OCc1ccccc1)C(=O)Nc1ccccc1)NO [Compound 13]
HDAC inhibition (%) [1]: 39.3 ± 3.1%

O=C(N[C@@H](CCCCNC(=O)c1c[nH]c2ccccc12)C(=O)Nc1ccccc1)OCc1ccccc1 [Compound 14j]
HDAC inhibition (%) [1]: 12.2 ± 6.5%

O=C(N[C@@H](CCCCNC(=O)c1cnc2ccccc2c1)C(=O)Nc1ccccc1)OCc1ccccc1 [Compound 14h]
HDAC inhibition (%) [1]: 28.3 ± 4.6%

COC(=O)CCCCCCC(=O)NCCCC[C@H](NC(=O)OCc1ccccc1)C(=O)Nc1ccccc1 [Compound 15c]
HDAC inhibition (%) [1]: 7.1 ± 0.3%

Nc1ccccc1NC(=O)CCC(=O)NCCCC[C@H](NC(=O)OCc1ccccc1)C(=O)Nc1ccccc1 [Compound 12]
HDAC inhibition (%) [1]: 30.7 ± 3.7%

O=C(CS)NCCCC[C@H](NC(=O)OCc1ccccc1)C(=O)Nc1ccccc1 [Compound 14g]
HDAC inhibition (%) [1]: 10.3 ± 4.9%

CC(C)(C)OC(=O)N[C@@H](Cc1c[nH]c2ccccc12)C(=O)NCCCC[C@H](NC(=O)OCc1ccccc1)C(=O)Nc1ccccc1 [Compound 14p]
HDAC inhibition (%) [1]: 24.7 ± 2.8%

Nc1ccccc1NC(=O)CCCCCCC(=O)NCCCC[C@H](NC(=O)OCc1ccccc1)C(=O)Nc1ccccc1 [Compound 17c]
HDAC inhibition (%) [1]: 50.6 ± 6.9%

O=C(N[C@@H](CCCCNC(=O)c1ccc[nH]1)C(=O)Nc1ccccc1)OCc1ccccc1 [Compound 14d]
HDAC inhibition (%) [1]: 48.4 ± 4.4%

O=C(O)CCC(=O)NCCCC[C@H](NC(=O)OCc1ccccc1)C(=O)Nc1ccccc1 [Compound 9]
HDAC inhibition (%) [1]: 37.5 ± 0.6%
